Experimental data published in patent US20240148821A1, “PHARMACEUTICAL USE OF CYCLIC PEPTIDE COMPOUND” (CHUGAI SEIYAKU KABUSHIKI KAISHA, priority 2021, published 2024).
Numbered stars: 1 amine (or outer) side, 2 acyl side, 3 side chain; on linkers, the order of the positions; unused ones are H or OH. Square brackets hold non-standard residues; d marks the D form. Peptide text beside a SMILES is read from it. * marks the point of attachment. hPhe(3,5-F2-4-CF3) = N[C@@H](CCc1cc(F)c(C(F)(F)F)c(F)c1)C(=O)O; hPhe(3-Cl-4-CF3) = N[C@@H](CCc1ccc(C(F)(F)F)c(Cl)c1)C(=O)O; hPhe(3-F,4-CF3) = N[C@@H](CCc1ccc(C(F)(F)F)c(F)c1)C(=O)O; NEtPhe(4-CF3) = CCN[C@@H](Cc1ccc(C(F)(F)F)cc1)C(=O)O; NMePhe(4-CF3) = CN[C@@H](Cc1ccc(C(F)(F)F)cc1)C(=O)O; hPhe(4-CF3) = N[C@@H](CCc1ccc(C(F)(F)F)cc1)C(=O)O; NMePhe(4-Cl) = CN[C@@H](Cc1ccc(Cl)cc1)C(=O)O; NMedβ3hAla = C[C@H](CC(=O)[*:2])N(C)[*:1]; NMeGly(cPent) = CN[C@H](C(=O)O)C1CCCC1; Pro(4,4-F2) = O=C(O)[C@@H]1CC(F)(F)CN1; NMeCha = CN[C@@H](CC1CCCCC1)C(=O)O; Hyp = O=C(O)[C@@H]1C[C@@H](O)CN1; NMeChg = CN[C@H](C(=O)O)C1CCCCC1; N(CH2CH2)2CF2 = FC1(F)CCN(*)CC1; NMeD = CN[C@@H](CC(=O)O)C(=O)O; NMeL = CN[C@@H](CC(C)C)C(=O)O; NMeV = CN[C@H](C(=O)O)C(C)C; NMeS = CN[C@@H](CO)C(=O)O; NMeA = CN[C@@H](C)C(=O)O; NMeAib = CNC(C)(C)C(=O)O; Ac5c = NC1(C(=O)O)CCCC1; Aze = O=C(O)[C@@H]1CCN1; Ac4c = NC1(C(=O)O)CCC1; Sar = CNCC(=O)O; Propyl = CCC*

What follows are compounds tested against protein-protein interaction between Kras and SOS1 (biotin-tagged human Kras loaded with GDP, His-tagged human SOS1) (Homo sapiens (Human), UniProt P01116, G12D) (assay: Protein-protein interaction inhibition between Kras and SOS1 (KrasG12D-SOS PPI) using AlphaScreen). Settings: AlphaScreen; biotin-tagged human Kras loaded with GDP, His-tagged human SOS1; read-out: KRAS G12D-SOS PPI IC50.
Format: biochemical

Question: How did the IC50 turn out when CC[C@H](C)[C@@H]1NC(=O)[C@H](C)N(C)C(=O)C[C@@H](C)N(C)C(=O)[C@H](CC(C)C)NC(=O)C(C)(C)N(C)C(=O)[C@H](CC(C)C)NC(=O)[C@H](CCc2ccc(C(F)(F)F)cc2)NC(=O)CN(C)C(=O)[C@H](Cc2ccc(Cl)cc2)N(C)C(=O)CN(C)C(=O)CN(C)C1=O [Compound 323] (cyclo(I[Sar][Sar][NMePhe(4-Cl)][Sar][hPhe(4-CF3)]L[NMeAib]L[NMedβ3hAla][NMeA])) was run?
Answer: 140 nM

Question: With CC[C@H](C)[C@@H]1NC(=O)[C@H](C)N(C)C(=O)C[C@@H](C)N(C)C(=O)[C@H](C(C)C)N(C)C(=O)C(C)(C)N(C)C(=O)[C@@H]2CCCN2C(=O)[C@H](CCc2ccc(C(F)(F)F)c(Cl)c2)NC(=O)CN(C)C(=O)[C@H](CC2CCCCC2)N(C)C(=O)[C@@H]2CCN2C(=O)[C@H](C)N(C)C1=O [Compound 341] (cyclo([Aze][NMeCha][Sar][hPhe(3-Cl-4-CF3)]P[NMeAib][NMeV][NMedβ3hAla][NMeA]I[NMeA])) as the compound, how does the IC50 read?
Answer: 2.9 nM

Question: For CC[C@H](C)[C@@H]1NC(=O)[C@H](CC(C)C)N(C)C(=O)C[C@@H](C)N(C)C(=O)[C@H](C2CCCCC2)N(C)C(=O)C2(CCC2)NC(=O)[C@@H]2CC(F)(F)CN2C(=O)[C@H](CCc2ccc(C(F)(F)F)c(Cl)c2)NC(=O)CN(C)C(=O)[C@H](Cc2ccc(C(F)(F)F)cc2)N(CC)C(=O)[C@@H]2CCN2C(=O)[C@H](C)N(C)C1=O [Compound 345] (cyclo([Ac4c][NMeChg][NMedβ3hAla][NMeL]I[NMeA][Aze][NEtPhe(4-CF3)][Sar][hPhe(3-Cl-4-CF3)][Pro(4,4-F2)])), which IC50 is on record?
Answer: 58 nM

Question: Which IC50 does the source give for CC[C@H](C)[C@@H]1NC(=O)[C@H](CC(C)C)N(C)C(=O)C[C@@H](C)N(C)C(=O)[C@H](C2CCCCC2)N(C)C(=O)C2(CCCC2)NC(=O)[C@@H]2CCCN2C(=O)[C@H](CCc2ccc(C(F)(F)F)c(Cl)c2)NC(=O)CN(C)C(=O)[C@H](Cc2ccc(C(F)(F)F)cc2)N(C)C(=O)[C@@H]2CCN2C(=O)[C@H](C)N(C)C1=O [Compound 348] (cyclo([Ac5c][NMeChg][NMedβ3hAla][NMeL]I[NMeA][Aze][NMePhe(4-CF3)][Sar][hPhe(3-Cl-4-CF3)]P)) here?
Answer: 6 nM

Question: CC[C@H](C)[C@@H]1NC(=O)[C@H](CC(C)C)N(C)C(=O)C[C@@H](C)N(C)C(=O)[C@H](C(C)C)N(C)C(=O)C2(CCCC2)NC(=O)[C@H](CC(=O)N2CCC(F)(F)CC2)N(C)C(=O)[C@H](CCc2ccc(C(F)(F)F)c(Cl)c2)NC(=O)CN(C)C(=O)[C@H](CC2CCCCC2)N(C)C(=O)CN(C)C(=O)CN(C)C1=O [Compound 350] (cyclo([Ac5c][NMeV][NMedβ3hAla][NMeL]I[Sar][Sar][NMeCha][Sar][hPhe(3-Cl-4-CF3)][NMeD](N(CH2CH2)2CF2))) was tested. Which IC50 did it give?
Answer: 64 nM

Question: How did the IC50 turn out when CCO[C@@H]1C[C@H]2C(=O)NC3(CCC3)C(=O)N(C)[C@@H](C3CCCCC3)C(=O)N(C)[C@H](C)CC(=O)N(C)[C@@H](CC(C)C)C(=O)N[C@@H]([C@@H](C)CC)C(=O)N(C)[C@@H](C)C(=O)N3CC[C@H]3C(=O)N(C)[C@@H](Cc3ccc(C(F)(F)F)cc3)C(=O)N(C)CC(=O)N[C@@H](CCc3cc(F)c(C(F)(F)F)c(F)c3)C(=O)N2C1 [Compound 365] (cyclo([Ac4c][NMeChg][NMedβ3hAla][NMeL]I[NMeA][Aze][NMePhe(4-CF3)][Sar][hPhe(3,5-F2-4-CF3)][Hyp](Et))) was run?
Answer: 38 nM

Question: CCCOC[C@H]1C(=O)N(C)CC(=O)N[C@@H](CCc2ccc(C(F)(F)F)c(Cl)c2)C(=O)N2CCC[C@H]2C(=O)NC2(CCCC2)C(=O)N(C)[C@@H](C2CCCC2)C(=O)N(C)[C@H](C)CC(=O)N(C)[C@@H](CC(C)C)C(=O)N[C@@H]([C@@H](C)CC)C(=O)N(C)[C@@H](C)C(=O)N2CC[C@H]2C(=O)N1C [Compound 366] (cyclo([Ac5c][NMeGly(cPent)][NMedβ3hAla][NMeL]I[NMeA][Aze][NMeS](Propyl)[Sar][hPhe(3-Cl-4-CF3)]P)) was tested. Which IC50 did it give?
Answer: 4 nM

Question: For CC[C@H](C)[C@@H]1NC(=O)[C@H](CC(C)C)N(C)C(=O)C[C@@H](C)N(C)C(=O)[C@H](C2CCCCC2)N(C)C(=O)C2(CCC2)NC(=O)[C@@H]2CC(F)(F)CN2C(=O)[C@H](CCc2cc(F)c(C(F)(F)F)c(F)c2)NC(=O)CN(C)C(=O)[C@H](Cc2ccc(C(F)(F)F)cc2)N(CC)C(=O)[C@@H]2CCN2C(=O)[C@H](C)N(C)C1=O [Compound 377] (cyclo([Ac4c][NMeChg][NMedβ3hAla][NMeL]I[NMeA][Aze][NEtPhe(4-CF3)][Sar][hPhe(3,5-F2-4-CF3)][Pro(4,4-F2)])), which IC50 is on record?
Answer: 24 nM

Question: How did the IC50 turn out when CC[C@H](C)[C@@H]1NC(=O)[C@H](CC(C)C)N(C)C(=O)C[C@@H](C)N(C)C(=O)[C@H](C2CCCC2)N(C)C(=O)C2(CCCC2)NC(=O)[C@@H]2CCCN2C(=O)[C@H](CCc2ccc(C(F)(F)F)c(F)c2)NC(=O)CN(C)C(=O)[C@H](C2CCCC2)N(C)C(=O)[C@@H]2CCN2C(=O)[C@H](C)N(C)C1=O [Compound 386] (cyclo([Ac5c][NMeGly(cPent)][NMedβ3hAla][NMeL]I[NMeA][Aze][NMeGly(cPent)][Sar][hPhe(3-F,4-CF3)]P)) was run?
Answer: 10 nM
